Values quoted from earlier work, collected in patent US20220313608A1, “TREATMENT OF BREAST CANCER” (SynCore Biotechnology Co., Ltd., priority 2015, published 2022).

System: metastatic breast cancer patients
Conditions: first-line, gemcitabine 1250 mg/m^2 days 1 and 8, paclitaxel 175 mg/m^2 triweekly

- frequency of alteration of hepatic function: 2%
SMILES: CC(=O)O[C@H]1C(=O)[C@@]2(C)[C@H]([C@H](OC(=O)c3ccccc3)[C@]3(O)C[C@H](OC(=O)[C@H](O)[C@@H](NC(=O)c4ccccc4)c4ccccc4)C(C)=C1C3(C)C)[C@]1(OC(C)=O)CO[C@@H]1C[C@@H]2O [paclitaxel]
